Source: patent publication US20250250252A1, “PIPERIDINYLBENZONITRILE DERIVATIVES AS INHIBITORS OF GLUTAMINYL-PEPTIDE CYCLOTRANSFERASE AND GLUTAMINYL-PEPTIDE CYCLOTRANSFERASE LIKE PROTEIN” (Boehringer Ingelheim International GmbH, priority 2024, published 2025)

system: SIRPα signalling induced by Raji cells; assay: Assay B: SIRPα signalling assay using Raji cells; assay type: cell-based; conditions: Homo sapiens, read-out: Inhibition of SIRPα signalling induced by Raji cells: IC50
Protocol: Bioassay reagent 1 of the PathHunter Bioassay detection kit (DiscoverX 93-0001) was added to each well of the plate using a multichannel pipette followed by a 15 min incubation at room temperature. Afterwards bioassay reagent 2 was added followed by 60 min incubation at room temperature (incubation in the dark).
(§1) The analysis of the data was performed using the luminescence signal generated by betagalactosidase in the PathHunter reporter cell line. The luminescence measurement was done using a Pherastar Multi-Mode Reader.

Row | SMILES | IC50
1 | Cn1cncc1C1CCN(c2c(C#N)cccc2-c2ccc(F)nc2)CC1 [QP5038, reference compound] | 21 nM

system: CYP3A4 mRNA; assay: Assay D: CYP induction screening assay in primary human hepatocytes; assay type: in vitro ADME; conditions: 48 h
Protocol: Cryopreserved plateable human hepatocytes (single donor, BioIVT) were thawed and plated in Collagen-I coated 96-well-plates at a cell density of 0.07 million cells per well.
After a 6 h attachment period, the seeding medium was replaced by serum-free William's medium E supplemented with Matrigel (0.25 mg/ml) and allowed to recover overnight. 24 h post-seeding, serum-free Williams E medium containing the test compound at a final concentration of 10 μM and a final DMSO content of 0.1% and 0.1% DMSO (solvents treated control), respectively, was added to predefined wells. Exposure solutions were renewed after 24 h.
After 48 h of treatment in total, the effect of the test compounds on CYP3A4 mRNA expression was assessed using the QuantiGene Plex Gene Expression Assay. Hepatocytes were lysed and total RNA was extracted using the QuantiGene Sample Processing Kit according to the instructions of the manufacturer.
mRNA quantification was conducted using a customized QuantiGene Plex Panel to analyse CYP3A4 and the housekeeper genes RPL32, EIF4E2 and GUSB according to the instructions of the manufacturer and measured on a Luminex™ instrument. Signal was reported as median fluorescence intensity (MFI), which is proportional to the number of target RNA molecules present in the sample.
For calculation of CYP3A4 mRNA induction, the signal for CYP3A4 was normalized against the geometric mean of the signal obtained for the housekeeper genes for hepatocytes exposed to test compounds in relation to solvent-treated samples according to the following equation:
n-fold induction=(MFI CYP3A4 (treated)/Xgeo MFI (RPL32,EIF4E2,GUSB))/(MFI CYP3A4 (solvent control)/Xgeo MFI (RPL32,EIF4E2,GUSB))

Row | SMILES | n-fold induction of CYP3A4 at 10 μM
2 | Cn1cncc1C1CCN(c2c(C#N)cccc2-c2ccc(F)nc2)CC1 [QP5038, reference compound] | 58.5 n-fold

system: murine hepatocytes; assay: Assay E: Stability in murine hepatocytes; assay type: in vitro ADME, mouse; conditions: 1 μM
Protocol: The metabolic degradation of the test compound is assayed in a murine hepatocyte suspension.
Murine hepatocytes (typically cryopreserved) are incubated in an appropriate buffer system (e.g. Dulbecco's modified eagle medium plus 3.5 μg glucagon/500 mL, 2.5 mg insulin/500 mL and 3.75 mg/500 mL hydrocortison) containing 5% species serum.
Following a (typically) 30 min preincubation in an incubator (37° C., 10% CO2) 5 μl of test compound solution (80 μM; from 2 mM in DMSO stock solution diluted 1:25 with medium) are added into 395 μl hepatocyte suspension (cell density in the range 0.25-5 Mio cells/mL, typically 1 Mio cells/mL; final concentration of test compound 1 μM, final DMSO concentration 0.05%).
The cells are incubated for six hours (incubator, orbital shaker) and samples (2 μl) are taken at 0, 0.5, 1, 2, 4 and 6 hours. Samples are transferred into acetonitrile and pelleted by centrifugation (5 min). The supernatant is transferred to a new 96-deepwell plate, evaporated under nitrogen and resuspended.
CLint is calculated as follows CL_[…]=Dose/AUC=(C0/CD)/(AUD+clast/k)×1000/60. C0: initial concentration in the incubation [μM], CD: cell density of vital cells [10e6cells/mL], AUD: area under the data [μM×h], clast: concentration of last data point [μM], k: slope of the regression line for parent decline [h−1].
The calculated in vitro hepatic intrinsic clearance can be scaled up to the intrinsic in vivo hepatic Clearance and used to predict hepatic in vivo blood clearance (CL) by the use of a liver model (well stirred model).
CL_[…]_INVIVO[ml/min/kg]=(CL_[…][μL/min/10e6cells]×hepatocellularity[10e6cells/g liver]×liver factor[g/kg bodyweight])/1000
CL[ml/min/kg]=CL_[…]_INVIVO[ml/min/kg]×hepatic blood flow[ml/min/kg]/(CL_[…]_INVIVO[ml/min/kg]+hepatic blood flow[ml/min/kg])
Hepatocellularity,mouse:120×10e6cells/g liver
Liver factor,mouse:55 g/kg bodyweight
Blood flow,mouse:90 ml/(min×kg)

Row | SMILES | Mouse Hepatocyte Stability QH
3 | Cn1cncc1C1CCN(c2c(C#N)cccc2-c2ccc(F)nc2)CC1 [QP5038, reference compound] | 97%

system: SIRPα signalling induced by A549 cells; assay: Assay B: SIRPα signalling assay using A549 cells; assay type: cell-based; conditions: Homo sapiens, read-out: Inhibition of SIRPα signalling induced by A549 cells: IC50
Protocol: Two cell types are independently used: the Raji cell line (lymphoblast-like human cell line derived from B lymphocytes from a Burkitt's lymphoma patient in 1963) and A549 cells (adenocarcinomic human alveolar basal epithelial cells).
Test compounds were dissolved in 100% DMSO and serially diluted into a white 384-well microtiter cell culture plate (PerkinElmer #60076780 in case of Raji assay; PDL-coated plates Greiner #781945 in case of A549 assay). 5000 Raji cells (ATCC #CC86) or 5000 A549 cells (ATCC #CCL-185) in Assay Complete Cell Plating reagent 30 (DiscoverX 93-0563R30B) were added per well. The assay plate was incubated for 48 h at 37° C., 95% humidity and 5% CO2. 15000 reporter cells (Jurkat PathHunter SIRPαV1, DiscoverX #93-1135C19) were added to each well, and the plate was incubated for 5 h at 37° C., 95% humidity and 5% CO2. Bioassay reagent 1 of the PathHunter Bioassay detection kit (DiscoverX 93-0001) was added to each well of the plate using a multichannel pipette followed by a 15 min incubation at room temperature. Afterwards bioassay reagent 2 was added followed by 60 min incubation at room temperature (incubation in the dark).
as §1, with “Reader. Dose-response curves & IC50 data were calculated with 4-parameter sigmoidal dose response formula.” for “Reader.”

Row | SMILES | IC50
4 | Cn1cncc1C1CCN(c2c(C#N)cccc2-c2ccc(F)nc2)CC1 [QP5038, reference compound] | 6 nM

system: not listed separately; assay: Assay C: Permeability in CACO-2 cells; assay type: in vitro ADME; conditions: human, Caco-2, pH 7.2; Assay C, permeability B-A/permeability A-B; read-out: Efflux Ratio
Protocol: (§2) Caco-2 cells (1-2×10^5 cells/1 cm^2 area) are seeded on filter inserts (Costar transwell polycarbonate or PET filters, 0.4 μm pore size) and cultured (DMEM) for 10 to 25 days. Compounds are dissolved in appropriate solvent (like DMSO, 1-20 mM stock solutions). […] The transport solution (TL) is applied to the apical or basolateral donor side for measuring A-B or B-A permeability (3 filter replicates), respectively. Samples are collected at the start and end of experiment from the donor and at various time intervals for up to 2 hours also from the receiver side for concentration measurement by HPLC-MS/MS or scintillation counting. Sampled receiver volumes are replaced with fresh receiver solution.
(§3) Efflux ratio (ER)=permeability B-A/permeability A-B

Row | SMILES | efflux ratio
5 | Cn1cncc1C1CCN(c2c(C#N)cccc2-c2ccc(F)nc2)CC1 [QP5038, reference compound] | 0.8

same assay, conditions: human, Caco-2, pH 7.2; pair comparison without/with 4-fluoropiperidyl; read-out: Efflux ratio (BA/AB)

Row | SMILES | efflux ratio
6 | Cn1cnnc1C1CCN(c2c(C#N)cc(C(F)(F)F)nc2-c2cnc3nn(C(C)(C)C)c(C(F)(F)F)c3c2)CC1 [Example 13 in EP 23189886.7] | 5.7
7 | Cn1cnnc1C1CCN(c2c(C#N)cc(Cl)nc2-c2ccc(F)nc2)CC1 [Example 18 in WO 2024/020517] | 3.3
8 | Cn1cnnc1C1(F)CCN(c2c(C#N)cc(F)cc2-c2cnc3nn(C(C)(C)C)c(C(F)(F)F)c3c2)CC1 | 0.8
9 | Cn1cnnc1C1CCN(c2c(C#N)cccc2-c2ccnnc2)CC1 [Example 11 in WO 2024/020517] | 28.1
10 | Cn1cnnc1C1(F)CCN(c2c(C#N)cc(C(F)(F)F)nc2-c2cnc3nn(C(C)(C)C)c(Cl)c3c2)CC1 [Example 3 in EP 23189886.7] | 1
11 | Cn1cnnc1C1CCN(c2c(C#N)cc(C(F)(F)F)nc2-c2cnc3nn(C(C)(C)C)c(Cl)c3c2)CC1 | 36.4
12 | Cn1cnnc1C1(F)CCN(c2c(C#N)cc(Cl)nc2-c2ccc(F)nc2)CC1 [Example 18 in EP 23161417.3] | 1
13 | Cn1cnnc1C1(F)CCN(c2c(C#N)cc(C(F)(F)F)nc2-c2cnc3nn(C(C)(C)C)c(C(F)(F)F)c3c2)CC1 [Example 4 in EP 23189886.7] | 0.6
14 | Cn1cnnc1C1CCN(c2c(C#N)cc(F)cc2-c2cnc3nn(C(C)(C)C)c(C(F)(F)F)c3c2)CC1 | 5.7

same assay, conditions: human, pH 7.2; Assay C, CACO-2 cells

Row | SMILES | Papp A→B
15 | Cn1cncc1C1CCN(c2c(C#N)cccc2-c2ccc(F)nc2)CC1 [QP5038, reference compound] | 61 ×10⁻⁶ cm/s

system: CACO-2 cells; assay: Assay C: Permeability in CACO-2 cells; assay type: in vitro ADME; conditions: pair comparison without/with 4-fluoropiperidyl
Protocol: as §2, §3

Row | SMILES | CACO2 Perm.
16 | Cn1cnnc1C1CCN(c2c(C#N)cc(C(F)(F)F)nc2-c2cnc3nn(C(C)(C)C)c(C(F)(F)F)c3c2)CC1 [Example 13 in EP 23189886.7] | 3.7 10^−6 cm/sec
17 | Cn1cnnc1C1CCN(c2c(C#N)cc(Cl)nc2-c2ccc(F)nc2)CC1 [Example 18 in WO 2024/020517] | 23.0 10^−6 cm/sec
18 | Cn1cnnc1C1(F)CCN(c2c(C#N)ccnc2-c2ccc(F)nc2)CC1 [Example 1 in EP 22188580.9] | 28.0 10^−6 cm/sec
19 | Cn1cnnc1C1CCN(c2c(C#N)cccc2-c2cnc3nn(C(C)(C)C)cc3c2)CC1 [Example 50 in EP 22216126.7] | 0.5 10^−6 cm/sec
20 | Cn1cnnc1C1CCN(c2c(-c3cnc4nn(C(C)(C)C)cc4c3)ccc(C(F)(F)F)c2C#N)CC1 [Example 32 in EP 23161417.3] | 0.2 10^−6 cm/sec
21 | Cn1cnnc1C1CCN(c2c(C#N)ccnc2-c2ccc(F)nc2)CC1 [Example 133 in WO 2024/020517] | 4.8 10^−6 cm/sec
22 | Cn1cnnc1C1(F)CCN(c2c(C#N)cc(F)cc2-c2cnc3nn(C(C)(C)C)c(C(F)(F)F)c3c2)CC1 | 51.0 10^−6 cm/sec
23 | Cn1cnnc1C1CCN(c2c(C#N)cc(F)cc2-c2ccc(F)nc2)CC1 [Example 130 in WO 2024/020517] | 24.0 10^−6 cm/sec
24 | Cn1cnnc1C1(F)CCN(c2c(C#N)cc(Cl)cc2-c2cnc3nn(C(C)(C)C)cc3c2)CC1 [Example 19 in EP 23161417.3] | 18.0 10^−6 cm/sec
25 | Cn1cnnc1C1(F)CCN(c2c(C#N)cc(F)cc2-c2ccc(F)nc2)CC1 [Example 6 in EP 23161417.3] | 44.0 10^−6 cm/sec
26 | Cn1cnnc1C1CCN(c2c(C#N)cccc2-c2ccnnc2)CC1 [Example 11 in WO 2024/020517] | 0.3 10^−6 cm/sec
27 | Cn1cnnc1C1CCN(c2c(-c3ccc(F)nc3)ccnc2C#N)CC1 [Example 132 in WO 2024/020517] | 1.8 10^−6 cm/sec
28 | Cn1cnnc1C1(F)CCN(c2c(C#N)cc(C(F)(F)F)nc2-c2cnc3nn(C(C)(C)C)c(Cl)c3c2)CC1 [Example 3 in EP 23189886.7] | 47.0 10^−6 cm/sec
29 | Cn1cnnc1C1(F)CCN(c2c(C#N)cccc2-c2ccnnc2)CC1 [Example 52 in EP 22216126.7] | 15.0 10^−6 cm/sec
30 | Cn1cnnc1C1(F)CCN(c2c(C#N)cc(C(F)(F)F)cc2-c2ccc(F)nc2)CC1 [Example 4 in EP 23161417.3] | 40.5 10^−6 cm/sec
31 | Cn1cnnc1C1CCN(c2c(C#N)cc(Cl)cc2-c2cnc3nn(C(C)(C)C)cc3c2)CC1 [Example 17 in EP 23161417.3] | 2.5 10^−6 cm/sec
32 | Cn1cnnc1C1(F)CCN(c2c(-c3ccc(F)nc3)ccnc2C#N)CC1 [Example 10 in EP 22188580.9] | 11.0 10^−6 cm/sec
33 | Cn1cnnc1C1CCN(c2c(C#N)cc(C(F)(F)F)nc2-c2cnc3nn(C(C)(C)C)c(Cl)c3c2)CC1 | 1.0 10^−6 cm/sec
34 | Cn1cnnc1C1(F)CCN(c2c(C#N)cccc2-c2cnc3nn(C(C)(C)C)cc3c2)CC1 [Example 62 in EP 22216126.7] | 4.9 10^−6 cm/sec
35 | Cn1cnnc1C1CCN(c2c(C#N)cc(C(F)(F)F)cc2-c2ccc(F)nc2)CC1 [Example 70 in WO 2024/020517] | 9.0 10^−6 cm/sec
36 | Cn1cnnc1C1(F)CCN(c2c(C#N)cc(Cl)nc2-c2ccc(F)nc2)CC1 [Example 18 in EP 23161417.3] | 66.0 10^−6 cm/sec
37 | Cn1cnnc1C1(F)CCN(c2c(C#N)cc(C(F)(F)F)nc2-c2cnc3nn(C(C)(C)C)c(C(F)(F)F)c3c2)CC1 [Example 4 in EP 23189886.7] | 99.5 10^−6 cm/sec
38 | Cn1cnnc1C1(F)CCN(c2c(-c3cnc4nn(C(C)(C)C)cc4c3)ccc(C(F)(F)F)c2C#N)CC1 [Example 30 in EP 23161417.3] | 1.7 10^−6 cm/sec
39 | Cn1cnnc1C1CCN(c2c(C#N)cc(F)cc2-c2cnc3nn(C(C)(C)C)c(C(F)(F)F)c3c2)CC1 | 17.0 10^−6 cm/sec
40 | Cn1cnnc1C1(F)CCN(c2c(C#N)cccc2-c2ccc(F)nc2)CC1 [Example 56 in EP 23161417.3] | 50.0 10^−6 cm/sec
